In brackets after ≈: the same amount, converted by molar mass.
How the values were obtained:
[1] = MTT assay, cell viability; format: cell-based; conditions: human, MDA-MB-231 breast cancer cells, read-out: MTT incorporation (cell viability) as percentage of control
Protocol: After incubation, the medium was removed and formazan crystals were dissolved in detergent reagent following the manufacturer's instructions (ATCC). Optical density for each condition was determined at 570 nm. MTT incorporation was expressed as percentage of the control in the absence of compounds.

[2] = target: T1, chloroperoxidase (CPO) (Leptoxyphium fumago, UniProt P04963); assay: CPO-catalyzed degradation in CPO-H2O2-Cl- system, LC-Q-TOF-MS; format: biochemical, Caldariomyces fumago; design: The isolation of CPO proposed in this study was a modification of the protocol reported by Morris and Hager (1966); made in house; host or cells: native producer
T1 sequence (P04963 21-319 limits assumed): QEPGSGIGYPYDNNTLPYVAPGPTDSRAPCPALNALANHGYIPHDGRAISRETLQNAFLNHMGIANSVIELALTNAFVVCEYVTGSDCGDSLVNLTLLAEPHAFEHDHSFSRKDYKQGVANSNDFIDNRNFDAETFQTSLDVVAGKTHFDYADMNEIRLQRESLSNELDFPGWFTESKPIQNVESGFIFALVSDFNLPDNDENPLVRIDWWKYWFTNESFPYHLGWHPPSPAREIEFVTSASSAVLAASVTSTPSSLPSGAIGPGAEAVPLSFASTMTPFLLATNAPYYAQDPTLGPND
Protocol: The mixture was centrifuged at 3,000 g in Centriprep® centrifugal filter unit with a 30,000 Dalton cut-off membrane (EMD Millipore, Billerica, Mass., USA). The yielded product was collected after being centrifuged for 1 min. Ethyl acetate was used to extract the filtrate while shaking vigorously, and the supernatant was evaporated to dryness using nitrogen gas. The dried metabolites were dissolved in H2O/methanol (95:5 v/v) to achieve a final concentration of 1 mg/L (ppm). Each sample was either stored in a freezer at −20° C. or immediately run in the LC-Q-TOF-MS mass spectrometer system.
Chromatographic separation and identification of metabolites was performed using the Agilent 1290 Infinity UPLC system coupled with Agilent 6530 Q-TOF mass spectrometer. The Agilent MassHunter Data Acquisition Software (rev. B0.06.00) was used to control the UPLC and the mass spectrometer. Mass Hunter Qualitative Data Analysis Software (Rev. B.07.00) was used for data mining and identification. An Agilent ZORBAX Eclipse plus C18 Rapid Resolution High Definition (RRHD) column (100 mm×1.8 μm) was applied, with the column temperature set at 30° C. via a thermostatted column compartment (TCC). An infinity 1290 automatic injector was used to inject 1 μL of the sample to the column. […]

[3] = system: C. pyrenoidosa; assay: Growth-inhibitory (eco-toxicity) test on freshwater green alga; format: cell-based, Chlorella pyrenoidosa; conditions: Auxenochlorella pyrenoidosa, 72 h; at the end of CPO-catalyzed degradation (product mixture of the named drug)
Protocol: Freshwater unicellular green alga, C. pyrenoidosa (provided by the Institute of Wuhan Hydrobiology, Chinese Academic of Science), was cultivated in nutrient media of blue green medium (BG11) at 298K and illuminated with cool-white fluorescent lights at a continuous light intensity of 2000 Lx. For cell experiments, C. pyrenoidosa was exposed, during its log growth phase, to the toxicant at five different concentrations (maintain final concentration ranging from 0.01 to 0.36 mg/L) for 3-4 days at 298K. The concentration of the alga was determined by monitoring the change of absorption at 680 nm (Ma et al., 2006). The toxicity tests for each drug concentration were conducted in triplicate.
The growth inhibition rate for each sample was calculated.
However, toxicity evaluation about the products from diclofenac and naproxen are not readily available. Biological assays offer a direct measure to evaluate the magnitude of the potential health risk of chemicals. Therefore, a growth-inhibitory test was carried out using C. Pyrenoidosa.

[4] = target: T1, chloroperoxidase (CPO); assay: CPO-catalyzed degradation of diclofenac and naproxen, HPLC; format: biochemical, C. fumago; design: CPO was isolated from the growth medium of C. fumago; made in house; host or cells: Caldariomyces fumago growth medium (native producer); conditions: for CPO concentration for complete degradation: 15 μmol/L drug, 0.1 mmol/L H2O2; for fraction of drug degraded within 1 min / time to complete degradation: optimum reaction condition; for pH of maximum degradation efficiency: pH range 2-6
Protocol: Enzymatic degradation of both drugs was carried out in 0.1 mol·L-1 phosphate buffer in a centrifugal tube with a total volume of 3.0 mL containing CPO (0.25-0.23 nmol·L-1), 20 mmol·L-1 KCl, and drugs (15 μmol·L^−1) at pH 2˜6 at 298K. The reaction was started by adding H2O2 (0.015-0.3 mmol·L^−1) in the absence of light under magnetic stirring and was continued for 20 min. The supernatant of the reaction mixture was extracted 3 times using ethyl acetate. The combined organic extract was concentrated by rotary evaporation (0.09 MPa, 308K) to remove the solvent. The extracts were then dissolved in acetonitrile and methanol, respectively, for HPLC (LC-20AT, Shimadzu) analysis. The mobile phase consisted of 80:20 (v/v) acetonitrile and water for diclofenac and 90:10 (v/v) methanol and water for naproxen, and the flow rate was 0.5 ml·min^−1. The detector was set at 274 nm and 235 nm for diclofenac and naproxen, respectively. The quantitative analysis of the target compounds was based on the standard curve (correlation coefficients were >0.999). The effect of reaction parameters (pH, concentration of enzyme/H2O2, and reaction time) on degradation efficiency was investigated and optimized.
All experiments were triplicated and data reported were mean values of three independent measurements.

[5] = target: T1, chloroperoxidase (CPO); assay: CPO-catalyzed degradation of CBZ, UV-Vis at 285 nm; format: biochemical, Caldariomyces fumago; design: The isolation of CPO proposed in this study was a modification of the protocol reported by Morris and Hager (1966); made in house; host or cells: native producer; conditions: 20 mM Cl-, 0.07 mM CBZ, 0.07 mM H2O2, 2.5 nM CPO
Protocol: A VARIAN UV-Vis spectrophotometer (Cary 200 Bio) was used to collect the UV spectra of the degradation products. The drug solution was scanned by dissolving 0.07 mM CBZ in 100 mM KH2PO4 buffer with 20 mM KCl at pH 2.75. The same solution was monitored after being mixed with 0.35 mM H2O2. UV spectra were recorded after the addition of 5 nM CPO for 1 min., 2.5 min., and 4 min.
The effect of the concentration of chloride was investigated. Degradation was carried out in 100 mM phosphate buffer at pH 3.0 with 0.07 mM CBZ and 0.07 mM H2O2. Concentration of chloride was increased from 0 to 20 mM. 285 nm wavelength was monitored immediately after 2.5 nM CPO was added.
The degradation rate at pH range of 2.0 to 5.0 was investigated to probe the effect of pH on the CPO-catalyzed reaction. The reaction was carried out in 100 mM phosphate buffer with 20 mM KCl, 0.07 mM CBZ, and 0.07 mM H2O2. […] 285 nm wavelength was monitored immediately after the addition of 2.5 nM CPO. The calculated time was 0.2 to 0.4 min.
The degradation rate of CBZ was determined by different concentrations of H2O2, ranging from 0.07 to 0.71 mM, in 100 mM phosphate buffer with 20 mM KCl and 0.07 mM CBZ at pH 3.0. A wavelength of 285 nm was monitored immediately after the addition of 5 nM CPO. The degradation rate was calculated at 0.1 to 0.3 min.
The rate was calculated by monitoring absorbance at 285 nm from 0.1 to 0.2 min. […]

Row | Compound | viability at 24 h, 0.0425 μg/ml [1] | viability at 24 h, 0.85 μg/ml [1] | viability at 24 h, 1.7 μg/ml [1] | degradation efficiency ([2]; 62.45 μM SMZ, 1.3 nM CPO, H2O2 added stepwise, 30 min) | EC50 [3] | CPO concentration for complete degradation [4] | fraction of drug degraded within 1 min [4] | time to complete degradation [4] | pH of maximum degradation efficiency [4] | degradation efficiency ([2]; 10.59 μM (2.5 mg/L) CBZ, 107.19 μM H2O2, 2.9 nM CPO, 10 min) | optimum pH for degradation [5]
1 | Cc1cc(C)nc(NS(=O)(=O)c2ccc(N)cc2)n1 [SMZ, Sulfamethazine] | 80% | 50% | 40% | 100% | – | – | – | – | – | – | –
2 | COc1ccc2cc(C(C)C(=O)O)ccc2c1 (stereo not shown) [naproxen, 2-(6-methoxynaphthalen-2-yl)propionic acid] | – | – | – | – | 0.33 µg/mL (≈ 1.43 µM) | > 20.0 nmol/L | ~75% | 7 min | ~3.2 | – | –
3 | NC(=O)N1c2ccccc2C=Cc2ccccc21 [CBZ, Carbamazepine] | 80% | 60% | 45% | – | – | – | – | – | – | 100% | 3.0
4 | O=C([O-])Cc1ccccc1Nc1c(Cl)cccc1Cl.[Na+] [diclofenac, 2-[(2,6-dichlorophenyl)amino]benzeneacetic acid; sodium salt] | – | – | – | – | 0.25 µg/mL | above 5.0 nmol·L^−1 | about 70% | 9 min | ~3.2 | – | –

Reference: US10301203B2, “Chloroperoxidase-catalyzed degradation of pharmaceutical pollutants in wastewater” (THE FLORIDA INTERNATIONAL UNIVERSITY BOARD OF TRUSTEES, priority 2017, dated 2019)
